Experimental data taken from ChEMBL document CHEMBL1156106 (J Med Chem, 2009).

Columns and labels:
Rattus norvegicus [1] = experiment: Effect on behavioural activity in rat assessed as cocaine-induced lever response at 25 mg/kg, ip pretreated with cocaine for 45 mins by drug-discrimination studies; format: functional; details: route intraperitoneal
Mus musculus [2] = experiment: Antidepressant activity in ip dosed mouse assessed as stimulation of locomotor activity; format: functional
Rattus norvegicus [3] = experiment: Effect on behavioural activity in rat assessed as cocaine-induced lever response at 50 mg/kg, ip pretreated with cocaine for 45 mins by drug-discrimination studies; format: functional; details: route intraperitoneal
Mus musculus [4] = experiment: Antidepressant activity in ip dosed mouse assessed as duration of locomotor activity; format: functional
Mus musculus [5] = experiment: Antidepressant activity in ip dosed mouse assessed as stimulation of locomotor activity relative to cocaine; format: functional
[6] = biological target: T1, Sodium-dependent serotonin transporter (Homo sapiens, UniProt P31645); experiment: biochemical; format: cell-based, HEK293
Mus musculus [7] = experiment: Antidepressant activity in ip dosed mouse assessed as time to reach peak stimulation of locomotor activity; format: functional
Rattus norvegicus [8] = experiment: Effect on behavioural activity in rat assessed as cocaine-induced lever response at 10 mg/kg, ip pretreated with cocaine for 75 mins by drug-discrimination studies; format: functional; details: route intraperitoneal
Rattus norvegicus [9] = experiment: Effect on behavioural activity in rat assessed as cocaine-induced lever response at 25 mg/kg, ip pretreated with cocaine for 75 mins by drug-discrimination studies; format: functional; details: route intraperitoneal
Rattus norvegicus [10] = experiment: Effect on behavioural activity in rat assessed as cocaine-induced lever response at 10 mg/kg, po pretreated with cocaine for 45 mins by drug-discrimination studies; format: functional
Rattus norvegicus [11] = experiment: Effect on behavioural activity in rat assessed as cocaine-induced lever response at 25 mg/kg, po pretreated with cocaine for 180 mins by drug-discrimination studies; format: functional
Rattus norvegicus [12] = experiment: Effect on behavioural activity in rat assessed as cocaine-induced lever response at 25 mg/kg, po pretreated with cocaine for 90 mins by drug-discrimination studies; format: functional
Rattus norvegicus [13] = experiment: Effect on behavioural activity in rat assessed as cocaine-induced lever response at 25 mg/kg, po pretreated with cocaine for 45 mins by drug-discrimination studies; format: functional
Rattus norvegicus [14] = experiment: Effect on behavioural activity in rat assessed as cocaine-induced lever response at 50 mg/kg, po pretreated with cocaine for 360 mins by drug-discrimination studies; format: functional
Rattus norvegicus [15] = experiment: Effect on behavioural activity in rat assessed as cocaine-induced lever response at 10 mg/kg, po pretreated with cocaine for 90 mins by drug-discrimination studies; format: functional
Rattus norvegicus [16] = experiment: Effect on behavioural activity in rat assessed as cocaine-induced lever response at 50 mg/kg, po pretreated with cocaine for 180 mins by drug-discrimination studies; format: functional
Rattus norvegicus [17] = experiment: Effect on behavioural activity in rat assessed as cocaine-induced lever response at 50 mg/kg, po pretreated with cocaine for 90 mins by drug-discrimination studies; format: functional
Rattus norvegicus [18] = experiment: Effect on behavioural activity in po dosed rat assessed as cocaine-induced lever response pretreated with cocaine by drug-discrimination studies; format: functional
Rattus norvegicus [19] = experiment: Effect on behavioural activity in rat assessed as cocaine-induced lever response at 100 mg/kg, ip pretreated with cocaine for 75 mins by drug-discrimination studies; format: functional; details: route intraperitoneal
Rattus norvegicus [20] = experiment: Effect on behavioural activity in rat assessed as cocaine-induced lever response at 10 mg/kg, po pretreated with cocaine for 180 mins by drug-discrimination studies; format: functional
Rattus norvegicus [21] = experiment: Effect on behavioural activity in rat assessed as cocaine-induced lever response at 50 mg/kg, ip pretreated with cocaine for 75 mins by drug-discrimination studies; format: functional; details: route intraperitoneal
Rattus norvegicus [22] = experiment: Effect on behavioural activity in rat assessed as cocaine-induced lever response at 25 mg/kg, po pretreated with cocaine for 360 mins by drug-discrimination studies; format: functional
Rattus norvegicus [23] = experiment: Effect on behavioural activity in rat assessed as cocaine-induced lever response at 50 mg/kg, po pretreated with cocaine for 45 mins by drug-discrimination studies; format: functional
Rattus norvegicus [24] = experiment: Effect on behavioural activity in rat assessed as cocaine-induced lever response at 50 mg/kg, ip pretreated with cocaine for 335 mins by drug-discrimination studies; format: functional; details: route intraperitoneal
Rattus norvegicus [25] = experiment: Effect on behavioural activity in rat assessed as cocaine-induced lever response at 10 mg/kg, ip pretreated with cocaine for 335 mins by drug-discrimination studies; format: functional; details: route intraperitoneal
Rattus norvegicus [26] = experiment: Effect on behavioural activity in rat assessed as cocaine-induced lever response at 25 mg/kg, ip pretreated with cocaine for 335 mins by drug-discrimination studies; format: functional; details: route intraperitoneal
Rattus norvegicus [27] = experiment: Effect on behavioural activity in rat assessed as cocaine-induced lever response at 100 mg/kg, ip pretreated with cocaine for 335 mins by drug-discrimination studies; format: functional; details: route intraperitoneal
Rattus norvegicus [28] = experiment: Toxicity in rat assessed as adverse effects at 50 mg/kg, ip; format: organism-based; design: dose 50 mg/kg, route intraperitoneal; details: in vivo
[29] = biological target: T2, Sodium-dependent dopamine transporter (Homo sapiens, UniProt Q01959); experiment: Inhibition of [3H]dopamine reuptake at human DAT expressed in HEK293 cells; format: cell-based
Rattus norvegicus [30] = experiment: Effect on behavioural activity in rat assessed as cocaine-induced lever response at 25 mg/kg, ip pretreated with cocaine for 60 mins by drug-discrimination studies; format: functional; details: route intraperitoneal
[31] = biological target: T3, Sodium-dependent noradrenaline transporter (Homo sapiens, UniProt P23975); experiment: Displacement of [125I]RTI55 from cloned human NET expressed in HEK293 cells; format: cell-based
[32] = biological target: T3, Sodium-dependent noradrenaline transporter; experiment: Inhibition of [3H]norepinephrine reuptake at human NET expressed in HEK293 cells; format: cell-based
[33] = biological target: T1, Sodium-dependent serotonin transporter; experiment: Inhibition of [3H]serotonin reuptake at human SERT expressed in HEK293 cells; format: cell-based
Rattus norvegicus [34] = experiment: Effect on behavioural activity in rat assessed as cocaine-induced lever response at 10 mg/kg, ip pretreated with cocaine for 60 mins by drug-discrimination studies; format: functional; details: route intraperitoneal
Rattus norvegicus [35] = experiment: Effect on behavioural activity in rat assessed as cocaine-induced lever response at 5 mg/kg, ip pretreated with cocaine for 60 mins by drug-discrimination studies; format: functional; details: route intraperitoneal
[36] = biological target: T2, Sodium-dependent dopamine transporter; experiment: Displacement of [125I]RTI55 from cloned human DAT expressed in HEK293 cells; format: cell-based

T1 sequence (P31645 whole entry): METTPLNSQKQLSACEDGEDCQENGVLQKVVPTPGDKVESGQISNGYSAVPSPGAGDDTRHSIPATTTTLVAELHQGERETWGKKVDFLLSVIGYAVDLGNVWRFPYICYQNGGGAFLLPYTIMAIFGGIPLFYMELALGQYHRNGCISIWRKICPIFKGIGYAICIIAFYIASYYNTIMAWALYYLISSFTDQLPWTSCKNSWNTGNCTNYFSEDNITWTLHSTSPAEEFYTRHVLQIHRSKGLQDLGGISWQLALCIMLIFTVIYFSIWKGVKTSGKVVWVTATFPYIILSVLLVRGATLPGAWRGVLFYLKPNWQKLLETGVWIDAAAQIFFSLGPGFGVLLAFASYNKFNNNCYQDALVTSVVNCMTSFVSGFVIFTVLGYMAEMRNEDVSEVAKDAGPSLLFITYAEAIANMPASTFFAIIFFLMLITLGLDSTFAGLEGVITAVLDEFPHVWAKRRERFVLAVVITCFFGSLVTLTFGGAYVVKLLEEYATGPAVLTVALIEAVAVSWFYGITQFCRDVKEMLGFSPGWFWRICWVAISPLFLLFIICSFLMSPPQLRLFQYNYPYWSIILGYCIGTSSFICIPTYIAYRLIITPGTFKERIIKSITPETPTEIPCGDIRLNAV
T3 sequence (P23975 whole entry): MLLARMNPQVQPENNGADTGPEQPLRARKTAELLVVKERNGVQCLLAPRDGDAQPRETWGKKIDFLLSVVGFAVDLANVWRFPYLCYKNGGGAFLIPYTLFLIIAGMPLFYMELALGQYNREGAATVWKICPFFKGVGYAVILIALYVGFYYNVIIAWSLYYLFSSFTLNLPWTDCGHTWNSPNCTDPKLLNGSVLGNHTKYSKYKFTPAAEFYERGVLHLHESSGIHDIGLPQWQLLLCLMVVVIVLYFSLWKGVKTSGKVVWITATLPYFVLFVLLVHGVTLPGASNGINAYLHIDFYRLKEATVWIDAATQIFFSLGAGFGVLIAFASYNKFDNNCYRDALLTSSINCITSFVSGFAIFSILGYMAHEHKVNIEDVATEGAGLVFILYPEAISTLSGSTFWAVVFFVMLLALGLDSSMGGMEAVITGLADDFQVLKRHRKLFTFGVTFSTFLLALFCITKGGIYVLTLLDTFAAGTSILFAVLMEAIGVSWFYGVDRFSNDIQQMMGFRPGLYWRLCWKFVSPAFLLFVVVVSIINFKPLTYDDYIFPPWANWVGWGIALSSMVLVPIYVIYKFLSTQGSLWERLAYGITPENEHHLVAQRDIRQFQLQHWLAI
T2 sequence (Q01959 whole entry): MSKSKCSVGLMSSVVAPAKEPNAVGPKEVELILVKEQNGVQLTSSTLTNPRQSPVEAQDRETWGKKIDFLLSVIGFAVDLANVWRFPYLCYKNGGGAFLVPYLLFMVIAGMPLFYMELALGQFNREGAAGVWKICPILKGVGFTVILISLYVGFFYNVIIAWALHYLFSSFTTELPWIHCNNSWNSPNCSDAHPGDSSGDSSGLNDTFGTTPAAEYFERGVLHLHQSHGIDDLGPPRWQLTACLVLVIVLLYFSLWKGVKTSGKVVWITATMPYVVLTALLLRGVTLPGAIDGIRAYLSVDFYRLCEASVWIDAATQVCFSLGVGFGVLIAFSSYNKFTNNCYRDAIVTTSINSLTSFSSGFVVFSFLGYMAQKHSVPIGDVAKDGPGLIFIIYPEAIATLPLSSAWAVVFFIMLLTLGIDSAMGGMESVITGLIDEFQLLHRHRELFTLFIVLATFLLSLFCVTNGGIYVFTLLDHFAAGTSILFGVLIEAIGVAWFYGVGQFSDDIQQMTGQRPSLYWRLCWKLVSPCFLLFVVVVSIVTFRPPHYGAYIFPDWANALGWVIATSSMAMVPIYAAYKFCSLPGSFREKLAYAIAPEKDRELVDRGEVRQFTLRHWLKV

## CCCCCC(NC(C)(C)C)C(=O)c1cccc(Cl)c1 (stereo not given)
Rattus norvegicus [1]
  Activity: 1%
Mus musculus [2]
  ED50: 12.9 mg/kg
Rattus norvegicus [3]
  Activity: 50.9%
Mus musculus [4]
  Time: 280 min
Mus musculus [5]
  Activity: 90%
[6]
  Ki: > 10 µM
Mus musculus [7]
  Time to peak locomotor stimulation: 60 min

## CCCCCCC(NC(C)(C)C)C(=O)c1cccc(Cl)c1 (stereo not given)
Rattus norvegicus [8]
  Activity: 0%
Rattus norvegicus [9]
  Activity: 48.5%
Rattus norvegicus [10]
  Activity: 0%
Rattus norvegicus [11]
  Activity: 0%
Rattus norvegicus [12]
  Activity: 0%
Mus musculus [2]
  ED50: 5.6 mg/kg
Rattus norvegicus [13]
  Activity: 0%
Rattus norvegicus [14]
  Activity: 0%
Rattus norvegicus [15]
  Activity: 0%
Rattus norvegicus [16]
  Activity: 25%
Rattus norvegicus [17]
  Activity: 17%
Rattus norvegicus [18]
  ED50: 46.9 mg/kg
Mus musculus [4]
  Time: 130 min
Rattus norvegicus [19]
  Activity: 67.2%
Mus musculus [5]
  Activity: 94%
Rattus norvegicus [20]
  Activity: 0%
[6]
  Ki: > 10 µM
Rattus norvegicus [21]
  Activity: 49.9%
Mus musculus [7]
  Time to peak locomotor stimulation: 110 min
Rattus norvegicus [22]
  Activity: 0%
Rattus norvegicus [23]
  Activity: 83%

## CC(C(=O)c1cccc(Cl)c1)N1CCCCC1 (stereo not given)
Rattus norvegicus [24]
  Activity: 32.7%
Mus musculus [2]
  ED50: 34.7 mg/kg
Rattus norvegicus [25]
  Activity: 7%
Mus musculus [4]
  Time: 30 min
Rattus norvegicus [26]
  Activity: 16.5%
Mus musculus [5]
  Activity: 45%
Mus musculus [7]
  Time to peak locomotor stimulation: 320 min
Rattus norvegicus [27]
  Activity: 33.7%

## CC(C)(C)NC(CCC1CCCCC1)C(=O)c1cccc(Cl)c1 (stereo not given)
Rattus norvegicus [28]
  Activity: Toxic
[29]
  IC50: > 10 µM
Rattus norvegicus [30]
  Activity: 69.6%
[31]
  Ki: 3.8 µM
Mus musculus [2]
  ED50: 14.1 mg/kg
[32]
  IC50: > 10 µM
Mus musculus [4]
  Time: 160 min
Mus musculus [5]
  Activity: 33%
[6]
  Ki: 6.2 µM
[33]
  IC50: > 10 µM
Rattus norvegicus [34]
  Activity: 0.7%
Mus musculus [7]
  Time to peak locomotor stimulation: 60 min
Rattus norvegicus [35]
  Activity: 0.2%
[36]
  Ki: 1.7 µM
